Measurements from ChEMBL document CHEMBL6096686, “Lanosterol 14α-Demethylase (CYP51)/Heat Shock Protein 90 (Hsp90) Dual Inhibitors for the Treatment of Invasive Candidiasis” (J Med Chem, 2025).
Converted amounts (≈) assume the structure as drawn.

Assays:
[1] = system: Candida albicans; assay: Antifungal activity against Candida albicans SC5314 incubated for 48 hrs by CLSI based liquid microdilution technique; type: functional
[2] = system: Nakaseomyces glabratus; assay: Antifungal activity against Candida glabrata 7804 incubated for 48 hrs by CLSI based liquid microdilution technique; type: functional
[3] = system: Cryptococcus neoformans; assay: Antifungal activity against Cryptococcus neoformans H99 incubated for 72 hrs by CLSI based liquid microdilution technique; type: functional
[4] = system: Pichia kudriavzevii; assay: Antifungal activity against Candida krusei 10153 incubated for 48 hrs by CLSI based liquid microdilution technique; type: functional
[5] = target: Lanosterol 14-alpha demethylase (Candida albicans (strain SC5314 / ATCC MYA-2876) (Yeast), UniProt P10613); assay: Inhibition of CYP51 in Candida albicans SC5314 assessed as accumulation of eburicol at 4 ug/ml measured after 48 hrs by GC-MS analysis; details: at 4 µg/mL
Lanosterol 14-alpha demethylase, sequence (P10613 whole entry): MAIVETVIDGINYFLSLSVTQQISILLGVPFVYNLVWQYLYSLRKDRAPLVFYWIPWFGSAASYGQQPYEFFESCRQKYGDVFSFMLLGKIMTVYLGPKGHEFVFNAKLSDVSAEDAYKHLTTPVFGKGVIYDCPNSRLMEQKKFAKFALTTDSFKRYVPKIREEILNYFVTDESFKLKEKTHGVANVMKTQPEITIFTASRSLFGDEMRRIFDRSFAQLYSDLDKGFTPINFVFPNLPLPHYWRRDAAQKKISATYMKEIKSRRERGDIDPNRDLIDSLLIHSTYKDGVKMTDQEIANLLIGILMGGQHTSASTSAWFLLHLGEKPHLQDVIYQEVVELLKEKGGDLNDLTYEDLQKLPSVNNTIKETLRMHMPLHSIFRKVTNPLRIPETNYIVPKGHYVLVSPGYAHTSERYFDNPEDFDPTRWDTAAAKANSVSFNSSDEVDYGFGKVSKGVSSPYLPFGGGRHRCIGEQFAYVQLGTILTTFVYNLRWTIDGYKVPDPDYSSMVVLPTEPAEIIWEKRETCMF

Compound | MIC80 [1] [µg/mL] | MIC80 [2] [µg/mL] | MIC80 [3] [µg/mL] | MIC80 [4] [µg/mL] | inhibition (INH) [5]
CCN(C(=O)c1cc(-c2ccc(C)cc2)c(O)cc1O)c1ccc(CN2CCN(C(=O)CCCOc3ccc(CN(C)CC(O)(Cn4cncn4)c4ccc(F)cc4F)cc3)CC2)cc1 (configuration not stated) | 8 (≈ 9.01 µM) | 16 (≈ 18 µM) | 4 (≈ 4.5 µM) | 16 (≈ 18 µM) | –
CCN(C(=O)c1cc(-c2ccc(C)cc2)c(O)cc1O)c1ccc(CN2CCN(C(=O)CCCCCOc3ccc(CN(C)CC(O)(Cn4cncn4)c4ccc(F)cc4F)cc3)CC2)cc1 (configuration not stated) | 8 (≈ 8.73 µM) | 16 (≈ 17.5 µM) | 8 (≈ 8.73 µM) | 32 (≈ 34.9 µM) | –
CCNC(=O)c1noc(-c2cc(-c3ccc(C)cc3)c(O)cc2O)c1-c1ccc(CN2CCN(C(=O)CCCOc3ccc(CN(C)CC(O)(Cn4cncn4)c4ccc(F)cc4F)cc3)CC2)cc1 (configuration not stated) | 8 (≈ 8.38 µM) | 16 (≈ 16.8 µM) | 4 (≈ 4.19 µM) | > 64 | –
OC(Cn1cncn1)(Cn1cncn1)c1ccc(F)cc1F [FLUCONAZOLE] | 0.5 (≈ 1.63 µM) | 16 (≈ 52.2 µM) | 1 (≈ 3.27 µM) | 64 (≈ 209 µM) | Active
